Test results: patent US20210145951A1, “COMPOSITIONS AND METHODS FOR SHARED NEO-EPITOPE VACCINES” (Epivax Oncology, Inc., priority 2019, published 2021)

Experiments:
CT26 tumor cells = test: CT26 tumor growth and survival after vaccination (Example 1); assay type: in vivo; conditions: CT26 in Balb/c mice
[1] = system: CT26 murine colon tumor cells; test: CT26 tumor growth with or without poly-ICLC (Example 13); assay type: in vivo, BALB/c mice; conditions: day 25 post-tumor implantation, relative to PBS or poly-ICLC alone
Method: The goal of this experiment was to determine the requirement for the inclusion of the adjuvant poly-ICLC in a peptide vaccine containing ANCER™ selected neoantigens. For this experiment, female BALB/c mice were implanted subcutaneously with 3×10^5 CT26 murine colon tumor cells. Tumor growth was monitored by caliper measurement and mice were sacrificed 45 days after tumor implantation or when tumor volumes reached 2000 mm^3, whichever came first.
Four vaccine groups were tested (n=10 mice/group):
Peptide vaccines were comprised of 20 different ANCER™ selected peptides at a concentration of 5 μg/peptide for a total dose of 100 μg peptide per immunization. Mice were immunized subcutaneously in the opposite flank from tumor implantation twice per week for three weeks, starting at day 4 post-tumor implantation.

## poly-ICLC
CT26 tumor cells; N=10
  mice reaching a tumor volume of at least 2,000 mm^3 (endpoint) by day 28: 60%
  mice that survived past day 28: Less than 50%
CT26 tumor cells; N=10, in words
  mice that survived the 45 days of the experiment: None
CT26 tumor cells; sc injections days 5-26
  tumor burden compared to Group 1 (PBS): no reduction in tumor burden
[1]
  control of tumor growth: no difference in tumor growth kinetics
